# Read-outs that look alike come from different tables or passages of the source.
# Target: T1, VLA-4 (Homo sapiens, UniProt P05556+P13612)
# T1 construct: host or cells: Jurkat clone E6-1
# Assay: Adhesion of Jurkat cells to immobilized VCAM-1 (domains 1-3)
# Type: cell-based
# Design: scale not given here
# Conditions: adhesion of CFSE-labeled Jurkat cells to recombinant human VCAM-1 (domains 1-3) coated plates, compounds as yielded by solid phase synthesis, purity about 40-90%
# How it was run: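 CFSE-labelled Jurkat E6-1 cells in Tris buffer pH 7.4 with 2 mM MnCl2 were added to wells coated with insect-cell-expressed human VCAM-1 domains 1-3 (0.5 μg/ml coating solution); labelled cells were incubated for 30 min at 37 °C with the VLA-4 inhibitor.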
# T1 sequence (P13612 34-1032): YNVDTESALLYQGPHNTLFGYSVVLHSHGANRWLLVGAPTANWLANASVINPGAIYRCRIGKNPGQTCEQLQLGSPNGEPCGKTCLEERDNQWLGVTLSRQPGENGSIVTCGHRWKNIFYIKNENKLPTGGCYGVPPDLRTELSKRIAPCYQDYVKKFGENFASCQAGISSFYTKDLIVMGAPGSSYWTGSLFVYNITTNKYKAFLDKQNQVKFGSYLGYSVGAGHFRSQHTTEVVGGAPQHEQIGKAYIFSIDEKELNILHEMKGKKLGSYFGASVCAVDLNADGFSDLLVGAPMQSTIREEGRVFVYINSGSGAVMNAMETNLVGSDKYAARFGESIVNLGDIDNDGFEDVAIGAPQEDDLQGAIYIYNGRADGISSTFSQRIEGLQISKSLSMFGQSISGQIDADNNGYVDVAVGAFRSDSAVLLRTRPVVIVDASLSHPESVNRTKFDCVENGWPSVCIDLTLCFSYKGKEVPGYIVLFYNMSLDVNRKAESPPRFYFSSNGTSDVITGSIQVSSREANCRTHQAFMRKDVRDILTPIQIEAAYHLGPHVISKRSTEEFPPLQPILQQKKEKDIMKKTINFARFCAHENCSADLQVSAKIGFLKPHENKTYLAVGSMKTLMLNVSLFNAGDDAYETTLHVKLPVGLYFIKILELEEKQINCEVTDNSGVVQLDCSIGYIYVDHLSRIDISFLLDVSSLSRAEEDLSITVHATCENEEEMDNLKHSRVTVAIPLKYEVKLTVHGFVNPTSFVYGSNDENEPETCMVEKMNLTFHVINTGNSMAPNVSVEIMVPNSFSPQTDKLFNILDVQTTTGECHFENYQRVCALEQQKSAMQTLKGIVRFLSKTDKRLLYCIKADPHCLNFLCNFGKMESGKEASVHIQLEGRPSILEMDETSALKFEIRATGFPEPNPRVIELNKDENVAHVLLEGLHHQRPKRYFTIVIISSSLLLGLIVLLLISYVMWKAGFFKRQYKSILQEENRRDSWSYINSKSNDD
# T1 sequence (P05556 21-798): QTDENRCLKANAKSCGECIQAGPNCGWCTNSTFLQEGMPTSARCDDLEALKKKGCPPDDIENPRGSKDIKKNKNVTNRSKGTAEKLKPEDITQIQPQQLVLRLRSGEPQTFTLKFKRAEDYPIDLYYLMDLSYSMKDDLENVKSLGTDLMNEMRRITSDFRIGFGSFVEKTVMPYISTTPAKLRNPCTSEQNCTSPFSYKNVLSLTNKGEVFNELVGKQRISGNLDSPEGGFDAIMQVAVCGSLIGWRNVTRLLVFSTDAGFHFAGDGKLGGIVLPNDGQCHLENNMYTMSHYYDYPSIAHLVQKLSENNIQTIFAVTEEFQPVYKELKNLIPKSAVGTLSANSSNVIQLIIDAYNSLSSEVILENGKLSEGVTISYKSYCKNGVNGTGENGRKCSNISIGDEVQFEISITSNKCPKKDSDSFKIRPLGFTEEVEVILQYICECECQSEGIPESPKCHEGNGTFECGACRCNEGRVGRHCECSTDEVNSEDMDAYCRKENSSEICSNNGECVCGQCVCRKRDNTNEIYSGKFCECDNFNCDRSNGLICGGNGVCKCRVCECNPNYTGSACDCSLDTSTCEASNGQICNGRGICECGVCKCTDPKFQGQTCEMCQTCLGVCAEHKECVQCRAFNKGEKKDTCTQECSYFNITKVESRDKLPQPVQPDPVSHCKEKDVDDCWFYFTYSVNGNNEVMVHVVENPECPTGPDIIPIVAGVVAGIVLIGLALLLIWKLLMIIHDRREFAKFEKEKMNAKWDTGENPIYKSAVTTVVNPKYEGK
Compound,IC50,IC50 (read-out: IC50) [µM]
Cc1ccccc1-c1ccc(C[C@H](NC(=O)C2CCCN(c3ncnc(NCc4ccccn4)c3F)C2)C(=O)O)cc1 (stereo partly shown) [Example 2.24],C-D,–
COc1ccc(-c2ccc(C[C@H](NC(=O)C3CCCN(S(=O)(=O)c4c(Cl)cccc4Cl)C3)C(=O)O)cc2)cc1 (stereo partly shown) [Example 1.79],C-D,–
COc1ccc(-c2ccc(C[C@H](NC(=O)C3CCCN(c4ncnc(NCc5ccccn5)c4F)C3)C(=O)O)cc2)cc1 (stereo partly shown) [Example 2.14],C-D,–
COc1ccccc1-c1ccc(C[C@H](NC(=O)C2CCCN(c3ncnc(NC4CCN(Cc5ccccc5)CC4)c3F)C2)C(=O)O)cc1 (stereo partly shown) [Example 5.2],–,2 to 10
O=C(N[C@@H](Cc1ccc(-c2ccccc2)cc1)C(=O)O)C1CCCN(S(=O)(=O)c2ccccc2C(F)(F)F)C1 (stereo partly shown) [Example 1.61],C-D,–
O=C(N[C@@H](Cc1ccc(NC(=O)N2CCc3ccccc3C2)cc1)C(=O)O)C1CCCN(c2ncnc(NCc3ccncc3)c2F)C1 (stereo partly shown) [Example 5.44],–,0.5 to 2
COc1ccccc1NC(=O)N1CCCC(C(=O)N[C@H](Cc2ccc(NC(=O)N3CCN(c4ccccc4)CC3)cc2)C(=O)O)C1 (stereo partly shown) [Example 4.55],–,0.5 to 2
O=C(N[C@@H](Cc1ccc(NC(=O)N2CCOCC2)cc1)C(=O)O)C1CCCN(c2ncnc(N3CCN(c4ccccc4)CC3)c2F)C1 (stereo partly shown) [Example 5.12],–,2 to 10
CCCNc1ncnc(N2CCCC(C(=O)N[C@@H](Cc3ccc(-c4cc(Cl)ccc4Cl)cc3)C(=O)O)C2)c1F (stereo partly shown) [Example 2.37],C-D,–
"O=C(N[C@@H](Cc1ccc(-c2cc(Cl)ccc2Cl)cc1)C(=O)O)C1CCCN(C(=O)OC2CCCC2)C1 (stereo partly drawn) [Example 1.5, (2S)-2-[({1-[(cyclopentyloxy)carbonyl]-3-piperidinyl}carbonyl)amino]-3-(2′,5′-dichloro[1,1′-biphenyl]-4-yl)propanoic acid]",–,≤ 0.5
O=C(N[C@@H](Cc1ccc(-c2ccc(Cl)c(Cl)c2)cc1)C(=O)O)C1CCCN(c2ncnc(N3CCOCC3)c2F)C1 (stereo partly shown) [Example 2.44],C-D,–
Cc1ccccc1-c1ccc(C[C@H](NC(=O)C2CCCN(c3ncnc(NC4Cc5ccccc5C4)c3F)C2)C(=O)O)cc1 (stereo partly shown) [Example 2.31],C-D,–
O=C(NCC(c1ccccc1)c1ccccc1)Nc1ccc(C[C@H](NC(=O)C2CCCN(S(=O)(=O)c3cccs3)C2)C(=O)O)cc1 (stereo partly shown) [Example 4.36],–,2 to 10
O=C(N[C@@H](Cc1ccc(-c2ccccc2)cc1)C(=O)O)C1CCCN(C(=O)C2CCCCC2)C1 (stereo partly shown) [Example 1.11],C-D,–
Cc1ccc(-c2ccc(C[C@H](NC(=O)C3CCCN(C(=O)C4CCCCC4)C3)C(=O)O)cc2)cc1 (stereo partly shown) [Example 1.21],C-D,–
O=C(N[C@@H](Cc1ccc(NC(=O)N2CCOCC2)cc1)C(=O)O)C1CCCN(C(=O)Nc2ccc(-c3ccccc3)cc2)C1 (stereo partly shown) [Example 4.59],–,0.5 to 2
COc1ccccc1-c1ccc(C[C@H](NC(=O)C2CCCN(c3ncnc(N)c3F)C2)C(=O)O)cc1 (stereo partly shown) [Example 5.4],–,0.5 to 2
CN(Cc1ccccc1)c1ncnc(N2CCCC(C(=O)N[C@@H](Cc3ccc(-c4cc(Cl)ccc4Cl)cc3)C(=O)O)C2)c1F (stereo partly shown) [Example 2.36],C-D,–
O=C(N[C@@H](Cc1ccc(NC(=O)N2CCN(c3ccccc3)CC2)cc1)C(=O)O)C1CCCN(C(=O)c2ccc(OC(F)(F)F)cc2)C1 (stereo partly shown) [Example 4.8],–,2 to 10
O=C(N[C@@H](Cc1ccc(NC(=O)N2CCN(c3ccccc3)CC2)cc1)C(=O)O)C1CCCN(C(=O)Cc2cccs2)C1 (stereo partly shown) [Example 4.18],–,≤ 0.5

Compound,IC50,IC50 (read-out: IC50) [µM]
O=C(N[C@@H](Cc1ccc(NC(=O)N2CCOCC2)cc1)C(=O)O)C1CCCN(C(=O)c2ccccc2F)C1 (stereo partly shown) [Example 4.49],–,≤ 0.5
Cc1ccc(S(=O)(=O)N2CCCC(C(=O)N[C@@H](Cc3ccc(NC(=O)N4CCN(c5ccccc5)CC4)cc3)C(=O)O)C2)cc1 (stereo partly shown) [Example 4.46],–,≤ 0.5
O=C(N[C@@H](Cc1ccc(NC(=O)N2CCOCC2)cc1)C(=O)O)C1CCCN(C(=O)NC2CCCCC2)C1 (stereo partly shown) [Example 4.58],–,0.5 to 2
Cc1ccc(S(=O)(=O)N2CCCC(C(=O)N[C@@H](Cc3ccc(NC(=O)N4CCN(C(c5ccccc5)c5ccccc5)CC4)cc3)C(=O)O)C2)cc1 (stereo partly shown) [Example 4.35],–,0.5 to 2
CC1CCCCN1c1ncnc(N2CCCC(C(=O)N[C@@H](Cc3ccc(NC(=O)N4CCc5ccccc5C4)cc3)C(=O)O)C2)c1F (stereo partly shown) [Example 5.41],–,0.5 to 2
CN1CCN(C(=O)Nc2ccc(C[C@H](NC(=O)C3CCCN(C(=O)NCc4ccccc4)C3)C(=O)O)cc2)CC1 (stereo partly shown) [Example 4.62],–,0.5 to 2
COc1ccc(Cl)cc1S(=O)(=O)N1CCCC(C(=O)N[C@@H](Cc2ccc(-c3ccc(C)cc3)cc2)C(=O)O)C1 (stereo partly shown) [Example 1.72],C-D,–
O=C(N[C@@H](Cc1ccc(NC(=O)N2CCOCC2)cc1)C(=O)O)C1CCCN(c2ncnc(NCc3ccccc3)c2F)C1 (stereo partly shown) [Example 5.8],–,0.5 to 2
COc1ccc(Cl)cc1S(=O)(=O)N1CCCC(C(=O)N[C@@H](Cc2ccc(-c3ccccc3)cc2)C(=O)O)C1 (stereo partly shown) [Example 1.62],C-D,–
O=C(N[C@@H](Cc1ccc(NC(=O)N2CCOCC2)cc1)C(=O)O)C1CCCN(S(=O)(=O)c2cccs2)C1 (stereo partly shown) [Example 4.42],–,≤ 0.5
CCCCN(C)c1ncnc(N2CCCC(C(=O)N[C@@H](Cc3ccc(-c4ccccc4C)cc3)C(=O)O)C2)c1F (stereo partly shown) [Example 2.33],C-D,–
COc1ccc(-c2ccc(C[C@H](NC(=O)C3CCCN(S(=O)(=O)c4cc(Cl)ccc4OC)C3)C(=O)O)cc2)cc1 (stereo partly shown) [Example 1.81],C-D,–
O=C(N[C@@H](Cc1ccc(-c2cc(Cl)ccc2Cl)cc1)C(=O)O)C1CCCN(S(=O)(=O)c2c(Cl)cccc2Cl)C1 (stereo partly shown) [Example 1.107],C-D,–
O=C(N[C@@H](Cc1ccc(NC(=O)N2CCN(C(c3ccccc3)c3ccccc3)CC2)cc1)C(=O)O)C1CCCN(C(=O)Cc2cccs2)C1 (stereo partly shown) [Example 4.10],–,≤ 0.5
Cc1ccccc1-c1ccc(C[C@H](NC(=O)C2CCCN(c3ncnc(NCCN4CCCC4)c3F)C2)C(=O)O)cc1 (stereo partly shown) [Example 2.32],C-D,–
COc1ccccc1NC(=O)N1CCCC(C(=O)N[C@@H](Cc2ccc(NC(=O)N3CCCCC3)cc2)C(=O)O)C1 (stereo partly shown) [Example 4.54],–,0.5 to 2
COc1ccccc1NC(=O)N1CCCC(C(=O)N[C@@H](Cc2ccc(NC(=O)N3CCOCC3)cc2)C(=O)O)C1 (stereo partly shown) [Example 4.63],–,0.5 to 2
O=C(N[C@@H](Cc1ccc(-c2cc(Cl)ccc2Cl)cc1)C(=O)O)C1CCCN(c2ncnc(N3CCCCC3)c2F)C1 (stereo partly shown) [Example 2.35],C-D,–
Cc1ccc(C(=O)N2CCCC(C(=O)N[C@@H](Cc3ccc(-c4ccc(Cl)cc4Cl)cc3)C(=O)O)C2)cc1 (stereo partly shown) [Example 1.42],B-C,–
CN(c1ncnc(N2CCCC(C(=O)N[C@@H](Cc3ccc(NC(=O)N4CCc5ccccc5C4)cc3)C(=O)O)C2)c1F)C1CCCCC1 (stereo partly shown) [Example 5.38],–,0.5 to 2

Compound,IC50,IC50 (read-out: IC50) [µM]
CN1CCN(C(=O)Nc2ccc(C[C@H](NC(=O)C3CCCN(c4ncnc(N5CCCCCC5)c4F)C3)C(=O)O)cc2)CC1 (stereo partly shown) [Example 5.20],–,0.5 to 2
COc1ccccc1C(=O)N1CCCC(C(=O)N[C@@H](Cc2ccc(-c3ccc(Cl)cc3Cl)cc2)C(=O)O)C1 (stereo partly shown) [Example 1.46],–,2 to 10
O=C(N[C@@H](Cc1ccc(-c2cc(Cl)ccc2Cl)cc1)C(=O)O)C1CCCN(c2ncnc(NCc3ccccn3)c2F)C1 (stereo partly shown) [Example 2.1],–,≤ 0.5
O=C(N[C@@H](Cc1ccc(NC(=O)N2CCN(c3ccccc3)CC2)cc1)C(=O)O)C1CCCN(c2ncnc(N3CCSCC3)c2F)C1 (stereo partly shown) [Example 5.17],–,0.5 to 2
COc1ccc(S(=O)(=O)N2CCCC(C(=O)N[C@@H](Cc3ccc(NC(=O)NC4CCN(Cc5ccccc5)CC4)cc3)C(=O)O)C2)cc1OC (stereo partly shown) [Example 4.40],–,2 to 10
CN1CCN(C(=O)Nc2ccc(C[C@H](NC(=O)C3CCCN(c4ncnc(NCCc5ccccc5)c4F)C3)C(=O)O)cc2)CC1 (stereo partly shown) [Example 5.25],–,0.5 to 2
COc1ccc(S(=O)(=O)N2CCCC(C(=O)N[C@@H](Cc3ccc(-c4ccccc4)cc3)C(=O)O)C2)cc1OC (stereo partly shown) [Example 1.60],C-D,–
O=C(N[C@@H](Cc1ccc(NC(=O)N2CCN(c3ccccc3)CC2)cc1)C(=O)O)C1CCCN(c2ncnc(NCCc3ccccc3)c2F)C1 (stereo partly shown) [Example 5.26],–,2 to 10
O=C(Nc1ccc(C[C@H](NC(=O)C2CCCN(C(=O)Cc3ccccc3)C2)C(=O)O)cc1)NC1CCN(Cc2ccccc2)CC1 (stereo partly shown) [Example 4.26],–,2 to 10
O=C(N[C@@H](Cc1ccc(NC(=O)N2CCOCC2)cc1)C(=O)O)C1CCCN(C(=O)Cc2cccs2)C1 (stereo partly shown) [Example 4.25],–,≤ 0.5
COc1ccccc1-c1ccc(C[C@H](NC(=O)C2CCCN(c3ncnc(N4CCCCC4)c3F)C2)C(=O)O)cc1 (stereo partly shown) [Example 2.52],C-D,–
O=C(N[C@@H](Cc1ccc(-c2ccc(Cl)c(Cl)c2)cc1)C(=O)O)C1CCCN(c2ncnc(NC3CCCCC3)c2F)C1 (stereo partly shown) [Example 2.42],C-D,–
Cc1ccccc1-c1ccc(C[C@H](NC(=O)C2CCCN(c3ncnc(N4CCNCC4)c3F)C2)C(=O)O)cc1 (stereo partly shown) [Example 2.29],C-D,–
CCCCN(C)c1ncnc(N2CCCC(C(=O)N[C@@H](Cc3ccc(-c4ccc(C)cc4)cc3)C(=O)O)C2)c1F (stereo partly shown) [Example 2.13],C-D,–
CCCNc1ncnc(N2CCCC(C(=O)N[C@@H](Cc3ccc(-c4ccc(Cl)c(Cl)c4)cc3)C(=O)O)C2)c1F (stereo partly shown) [Example 2.47],C-D,–
Cc1cc(Cl)c(CC(=O)N2CCCC(C(=O)N[C@@H](Cc3ccc(-c4ccccc4)cc3)C(=O)O)C2)c(Cl)c1 (stereo partly shown) [Example 1.12],C-D,–
"O=C(N[C@@H](Cc1ccc(-c2cc(Cl)ccc2Cl)cc1)C(=O)O)C1CCCN(c2ncnc(N3CCNCC3)c2F)C1 (stereo partly drawn) [Example 2.2, (2S)-3-(2′,5′-dichloro[1,1′-biphenyl]-4-yl)-2-[({1-[5-fluoro-6-(1-piperazinyl)-4-pyrimidinyl]-3-piperidinyl}carbonyl)amino]propanoic acid]",–,≤ 0.5
COC(=O)c1ccccc1S(=O)(=O)N1CCCC(C(=O)N[C@@H](Cc2ccc(-c3ccc(Cl)cc3Cl)cc2)C(=O)O)C1 (stereo partly shown) [Example 1.95],C-D,–

# Source: US6794386B2, “β-amino acid compounds as integrin antagonists” (Bayer Aktiengesellschaft, priority 2000, dated 2004)
